On the set-up of data set [1]: method as in PMID 35042701. Particulars: patients, radio-labeled lurbinectedin mass balance study; cited from earlier work.
On the set-up of data set [2]: method as in PMID 35042701. Particulars: NHPs; cited from earlier work.
Data set [3] can be described thus: Stability in human K3-EDTA plasma under different test conditions. Format: in vitro ADME. The protocol:
Likewise, a wide range of long-term stability tests reflecting the sort of real-world storage issues that can occur in hospital-based clinical studies (e.g., short-term storage at -20°C before transfer to -80°C, availability of -60°C but not -80°C), was evaluated to ensure plasma samples are analyzed before degradation can occur. Therefore, the following plasma stability tests were performed: room temperature, freeze thaw (one cycle consisted of 2 hours at room temperature followed by freezing for at least 12 hours at -80°C ± 10°C) and long-term (at -20°C ± 5°C, -60°C ± 10°C and -80°C ± 10°C). For each stability test, two concentrations (LQC and HQC) and six replicates per level were analyzed. For acceptance criteria, the precision (%CV) was ≤15% and the bias when compared with the nominal concentration was ±15%. […]

Data set [4] is classed as in vitro ADME. Particulars: human, 120 min, 10 ng/mL. The protocol:
To ensure correct sample collection during the clinical trial procedures, whole-blood (using K3-EDTA as anticoagulant) stability was studied by spiking the blood (lurbinectedin at 20 ng/mL and M4 and M6 at 10 ng/mL). Aliquots of the whole blood were then centrifuged at 4°C for 0, 30, 60, 90 and 120 minutes post equilibration (15 minutes at 37°C) to produce plasma, which was then frozen prior to analysis. This was performed at room temperature (and in an ice bath for lurbinectedin). The derived plasma samples were analyzed in triplicate, and the criterion for acceptance was defined as having a response within ±15% of the zero-minute sample.

The nature of data set [5]: Stability of stock and working solutions at -20°C. In kind it is physicochemical. As to conditions: 1 mg/mL in DMSO, -20°C ±5°C. The protocol:
The stability of stock and working solutions, as well the stability of IS stock solution, following storage at -20°C ±5°C were investigated by concordance verification by comparing the stored solution against a freshly prepared one.

The nature of data set [6]: Chemical stability of M4 reference standard on isolation. Format: physicochemical. Particulars: column chromatography on silica gel or reversed-phase chromatography. On the procedure: The chemical synthesis of the reference standard for M4 was not feasible. […] Therefore, M4 and M4-d4 solutions were biosynthetically obtained following the incubation of lurbinectedin and PM040038, respectively, in liver microsomes according to a three-step method described elsewhere.

Where [7] appears, read: 5 freeze-thaw cycles, nom. conc. 1.5 ng/mL.
The mark [8] stands for this setting: 5 freeze-thaw cycles, nom. conc. 16 ng/mL.
Setting [9] is: -80°C ±10°C, 237 days, nom. conc. 1.5 ng/mL.
[10] abbreviates: -80°C ±10°C, 237 days, nom. conc. 16 ng/mL.
Where [11] appears, read: Ambient, 21.8 hours, nom. conc. 1.5 ng/mL.
Where [12] appears, read: Ambient, 21.8 hours, nom. conc. 16 ng/mL.
Setting [13] is: -80°C ±10°C, 197 days, nom. conc. 1.5 ng/mL.
Where [14] appears, read: -80°C ±10°C, 197 days, nom. conc. 16 ng/mL.
The mark [15] stands for this setting: Ambient, 6 hours, nom. conc. 1.5 ng/mL.
Setting [16] is: Ambient, 6 hours, nom. conc. 16 ng/mL.

Where two headings read alike, the source gives them in different places. Bounds are passed on as bounds.

As for `COc1ccc2[nH]c3c(c2c1)CCN[C@]31CS[C@@H]2c3c(OC(C)=O)c(C)c4c(c3[C@H](COC1=O)N1[C@@H]2[C@@H]2N[C@@H](Cc3cc(C)c(OC)c(O)c32)[C@@H]1O)OCO4` [M6, N-desmethyl-lurbinectedin], the “circulating metabolite in plasma, % compared with parent compound” value in data set [1] was 10.4%; in data set [2], 0.4%. Moreover, the Bias in data set [3] (setting [7]) is given as 13%; in data set [3] (setting [8]), 14%; in data set [3] (setting [9]) it was 13%; in data set [3] (setting [10]) it was 15%; in data set [3] (setting [11]) it was 5%; in data set [3] (setting [12]) it was 5%. The Measured conc. in data set [3] (setting [7]) was determined as 1.69 ng/mL; in data set [3] (setting [8]), 18.2 ng/mL; in data set [3] (setting [9]), 1.70 ng/mL; in data set [3] (setting [10]) it was 18.4 ng/mL; in data set [3] (setting [11]), 1.58 ng/mL; in data set [3] (setting [12]), 16.8 ng/mL. Moreover, the “difference in concentration from time zero to 120 minutes” value in data set [4] is reported as -8%. Also, the “stability of stock solution in DMSO” value in data set [5] is at least 28 days.
Consider `[2H]C1([2H])N[C@]2(CS[C@@H]3c4c(OC(C)=O)c(C)c5c(c4[C@H](COC2=O)N2[C@@H]3[C@@H]3N[C@@H](Cc4cc(C)c(OC)c(O)c43)[C@@H]2O)OCO5)c2[nH]c3ccc(OC)cc3c2C1([2H])[2H]` [PM190539, N-Desmethyl-lurbinectedin-d4], for which the “stability of stock solution in DMSO” value in data set [5] is recorded as at least 28 days.
Turning to `COc1ccc2[nH]c3c(c2c1)CCN[C@]31CS[C@@H]2c3c(OC(C)=O)c(C)c(O)c(O)c3[C@H](COC1=O)N1[C@@H]2[C@H]2c3c(cc(C)c(OC)c3O)C[C@@H]([C@@H]1O)N2C` [M4, 1′,3′-dihydroxy-lurbinectedin], the “circulating metabolite in plasma, % compared with parent compound” value is 14.3% in data set [1] and 0.9% in data set [2]. Further, in data set [6], the “stability on isolation by conventional methods” value is “too unstable to be isolated”. Besides, the Bias is 5% in data set [3] (setting [7]); -3% in data set [3] (setting [8]); 3% in data set [3] (setting [13]); -1% in data set [3] (setting [14]); -7% in data set [3] (setting [15]); -14% in data set [3] (setting [16]). For the same molecule, the Measured conc. in data set [3] (setting [7]) is listed as 1.58 ng/mL; in data set [3] (setting [8]), 15.6 ng/mL; in data set [3] (setting [13]), 1.54 ng/mL; in data set [3] (setting [14]) it was 15.8 ng/mL; in data set [3] (setting [15]) it was 1.40 ng/mL; in data set [3] (setting [16]) it was 13.7 ng/mL. Besides, the “difference in concentration from time zero to 120 minutes” value in data set [4] was -3%.
In the case of `[2H]C1([2H])N[C@]2(CS[C@@H]3c4c(OC(C)=O)c(C)c5c(c4[C@H](COC2=O)N2[C@@H]3[C@H]3c4c(cc(C)c(OC)c4O)C[C@@H]([C@@H]2O)N3C)OCO5)c2[nH]c3ccc(OC)cc3c2C1([2H])[2H]` [PM040038], in data set [5], the “stability of stock solution in DMSO” value was at least 36 days.

The values are drawn from article PMC10062662, “Quantitative determination of lurbinectedin, its unbound fraction and its metabolites in human plasma utilizing ultra-performance LC–MS/MS” (PLOS ONE, 2023).
